Data set [1] is described as follows: Metabolic stability in human liver S9 fractions (half-life in vitro). The settings on record: pH 7.2, Human S9 ½ life in-vitro, read-out: half-life in human S9 cells. It counts as in vitro ADME. On the procedure: Generally, a FAAH inhibitor was incubated in human liver S9 fractions. Incubations were conducted at 37° C. in a potassium phosphate buffer (pH 7.2). NADPH and a regenerating system consisting of NADP, glucose 6-phosphate dehydrogenase were provided to the incubates. Incubations were terminated by the addition of methanol and freezing at −80° C. See, e.g., Singh, R. et al. Rapid Commun. Mass Spectrom., 10: 1019-26 (1996).

For another data set, the target named is T1, FAAH (Homo sapiens, UniProt O00519).
T1 sequence (O00519 1-579): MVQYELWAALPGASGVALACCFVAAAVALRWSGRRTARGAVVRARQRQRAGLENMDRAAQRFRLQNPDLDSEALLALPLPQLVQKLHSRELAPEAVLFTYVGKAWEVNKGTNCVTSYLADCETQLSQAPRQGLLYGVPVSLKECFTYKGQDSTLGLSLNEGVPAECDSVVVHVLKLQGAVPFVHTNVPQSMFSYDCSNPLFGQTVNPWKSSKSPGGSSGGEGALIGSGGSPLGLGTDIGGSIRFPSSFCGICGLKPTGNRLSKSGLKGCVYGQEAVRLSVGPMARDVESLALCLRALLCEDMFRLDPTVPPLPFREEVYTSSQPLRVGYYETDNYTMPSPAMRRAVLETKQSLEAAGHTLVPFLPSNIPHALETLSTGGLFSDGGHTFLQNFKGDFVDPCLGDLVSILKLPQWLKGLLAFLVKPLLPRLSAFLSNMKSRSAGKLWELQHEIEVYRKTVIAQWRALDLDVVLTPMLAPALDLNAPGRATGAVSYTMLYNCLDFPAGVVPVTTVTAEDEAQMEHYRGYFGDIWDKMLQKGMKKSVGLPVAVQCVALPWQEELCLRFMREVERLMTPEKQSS
Nature of the data set: FAAH LC-MS/MS screening assay (anandamide hydrolysis by human liver microsomes). The settings on record: inhibitor at 30 nM, 60 minute incubation at 37° C. (Liver microsomes are a subcellular fraction often used to study metabolism.)

Experimental for FAAH: The following are combined in a 5-mL glass tube: anandamide (5 μL of 200 ug/mL), 960 μL of 50 mM ammonium phosphate buffer (pH 7.4) containing 0.125% BSA (w/v), 10 μL of DMSO without (control) or with a FAAH inhibitor (1 μg/mL), and 25 μL of human liver microsomes (31.3/g). Prior to incubation, a 100 μL aliquot is transferred to a 96-well plate containing 0.25 mL of acetonitrile and D4 (deuterated) anandamide (0.2 #M). Each 5-mL tube is capped and placed in a shaking water bath maintained at 37° C. for 60 minutes. After a 60 minute incubation, a second 100 μL aliquot is transferred to a 96-well plate as performed earlier. The 96-well plate is then capped, vortex mixed, and placed on an HPLC for liquid chromatography/tandem mass spectrometry (LC/MS/MS) analyses. HPLC is carried out on a Waters 2790 Alliance system (Milford, Mass.). […] The samples are analyzed using an electrospray probe in the positive ionization mode with the cone voltage set at 40 V and capillary at 3.2 kV. […] An area ratio response (anandamide area response/D4 anandamide area response) was determined for each sample. Percent anandamide hydrolysis of each sample is determined by the following equation, [(T=0 response)−(T=60 response)/T=0 response]*100. The percent hydrolysis normalized to control is determined by dividing the % hydrolysis of test sample by the % hydrolysis of the control sample.

Take `NC(=O)c1cccc(-c2cccc(OC(=O)NC3CCCCC3)c2)c1` [KDS-4103]: the half-life – broadly, the time in which the quantity being followed falls by half – in data set [1] is around 30 min. Moreover, the “anandamide hydrolysis compared to the control” value on FAAH is listed as 30%.

With `CC1(C)CCC(NC(=O)Oc2cccc(-c3cccc(C(N)=O)c3)c2)CC1` [Example 1, (4,4-dimethylcyclohexyl)carbamic acid 3′carbamoylbiphenyl-3-yl ester], at FAAH, the “anandamide hydrolysis compared to the control” value is below 50%.
